The source of these data is publication PMC2784364, “VX-166: a novel potent small molecule caspase inhibitor as a potential therapy for sepsis” (Critical Care, 2009).

“Also recorded” adds a separate entry of the source.

One may read the IC50 as the concentration needed to halve the response being measured.

In one assay the test system is Jurkat cells. Kind of assay: Anti-Fas induced apoptosis in Jurkat cells, DNA fragmentation (Cell Death Detection ELISA). It counts as cell-based. Conditions: Human Jurkat cell line/DNA fragmentation, n = 4, read-out: IC50, inhibition of apoptosis. As for the experimental part: Jurkat cells were obtained from LGC Standards (Teddington, UK) and were grown in RPMI 1640, 10% FCS, 2 mM L-glutamine, 100 U/ml penicillin and 0.1 mg/ml streptomycin (all from Sigma Aldrich Ltd., Poole, UK) at 37°C in 5% CO2/95% humidity. Receptor- or stress-mediated apoptosis (2 × 10^5 cells/ml) was induced by addition of either anti-Fas antibody CH-11 (10 ng/ml, Millipore UK Ltd., Watford, UK), TNF-α (20 ng/ml, R&D Systems, Abingdon, UK) with cycloheximide (112 ng/ml, Sigma Aldrich Ltd., Poole, UK) or staurosporine (350 ng/ml, Sigma Aldrich Ltd., Poole, UK). VX-166 was diluted into DMSO (10 mM), further diluted in media and added at a range of concentrations. Cells were then incubated for 18 hours. Apoptotic cells were then labelled with Cy5-conjugated Annexin-V (BD Biosciences, Oxford, UK) and detected using a FMAT™ 8100 Fluorimetric Microassay Technology Reader (Applied Biosystems, Warrington, UK). For the experiments using anti-Fas antibody, apoptosis was additionally measured using a Cell Death Detection ELISA kit (Roche Diagnostics Ltd., Lewes, UK) following the manufacturer's instructions.
On the technique in general: ELISA stands for enzyme-linked immunosorbent assay.

Assay [1] concerns human aorta endothelial cells (HAEC). Kind of assay: Apoptosis assay in human aorta endothelial cells, serum withdrawal, DNA fragmentation. It counts as cell-based. Conditions: Endothelial cell, Serum withdrawal and nutrient deprivation, 48 hours, n = 4, read-out: IC50, inhibition of apoptosis. As for the experimental part: Human aorta endothelial cells (HAEC) were purchased from Cambrex Bio Science Wokingham Ltd., (Wokingham, UK) and cultured as recommended by the supplier. Apoptosis was induced in 5 × 10^4 cells/ml by addition of medium deprived of serum and growth factors. VX-166 was added at a range of concentrations as described above and the cells incubated for 48 hours at 37°C in an atmosphere of 5% CO2/95% humidity. Apoptosis was measured using a Cell Death Detection ELISA kit (Roche Diagnostics Ltd., Lewes, UK) following the manufacturer's instructions.

The test system of the next assay is CD-1 mice. Kind of assay: Endotoxic shock in the mouse (LPS 20 mg/kg iv), survival. In kind it is in vivo. As for the experimental part:
Endotoxic shock studies were approved by the Vertex Pharmaceuticals Institutional Animal Care and Use Committee. Adult male CD-1 mice (weighing 30 to 32 g; Charles River Laboratories, Wilmington, MA, USA) were administered LPS (from E. coli serotype 0111:B4, Sigma-Aldrich, St. Louis, MO, USA) at 20 mg/kg iv and survival was monitored for 96 hours (n = 28 per group). VX-166 or vehicle (10% propylene glycol: 90% sodium phosphate buffer pH 8) were administered by repeat iv bolus at 0 hours (co-injection with LPS), 4, 8 and 12 hours post-LPS. VX-166 was administered at 1, 3, 10 or 30 mg/kg.

The next assay deals with Sprague-Dawley rats. Kind of assay: CLP rat, thymus weight. Conditions: 25 mg/ml pump, P < 0.01. It counts as in vivo. As for the experimental part:
CLP studies were performed in accordance with the National Institutes of Health guidelines for the use of experimental animals and were approved by the Institutional Animal Care and Use Committee of the Feinstein Institute for Medical Research. Adult male Sprague-Dawley rats (weighing 275 to 325 g, Charles River Laboratories, Wilmington, MA, USA) were fasted overnight then anaesthetised with isoflurane. The caecum was exposed via a 2 cm midline incision. It was ligated just distal to the ileocaecal valve, then punctured twice with an 18-gauge needle and gently squeezed to release a small amount of faecal material to ensure patency of the perforation sites before the abdominal incision was closed. Sham-operated rats underwent the same procedure with the exception that the caecum was neither ligated nor punctured. Animals received subcutaneous fluids (30 ml/kg saline) immediately after the procedure. No antibiotics were administered. In the 7 and 10 day survival studies animals were re-anaesthetised 20 hours after CLP, the perforated caecum was removed and the abdominal cavity washed twice with 40 ml of warm, sterilised saline. The abdominal cavity was closed, anaesthetics withdrawn and rats returned to their cages where they were allowed free access to food and water. In the 20 hour endpoint study the caecum was not removed. […]

The next assay has as its system IL-1β. Kind of assay: CLP rat, plasma IL-1β by ELISA. It counts as in vivo. The following applies: 20 hours, 25 mg/ml pump, n = 10, P < 0.05. As for the experimental part: (§1) CLP studies were performed in accordance with the National Institutes of Health guidelines for the use of experimental animals and were approved by the Institutional Animal Care and Use Committee of the Feinstein Institute for Medical Research. Adult male Sprague-Dawley rats (weighing 275 to 325 g, Charles River Laboratories, Wilmington, MA, USA) were fasted overnight then anaesthetised with isoflurane. The caecum was exposed via a 2 cm midline incision. It was ligated just distal to the ileocaecal valve, then punctured twice with an 18-gauge needle and gently squeezed to release a small amount of faecal material to ensure patency of the perforation sites before the abdominal incision was closed. Sham-operated rats underwent the same procedure with the exception that the caecum was neither ligated nor punctured. […]
(§2) Blood samples were centrifuged at 1500 g for 15 minutes at 4°C, the plasma was removed and stored at -80°C until analysis. Plasma IL-1β levels were determined by ELISA (R&D Systems Inc., Minneapolis, MN, USA) following the manufacturer's instructions. Plasma endotoxin levels were determined using a Limulus amebocyte lysate (LAL) kit (Associates of Cape Cod, Inc., East Falmouth, MA, USA) according to the manufacturer's instruction. […] The optical density was determined at 405 nm using a spectrophotometer. The levels of endotoxin were then calculated and expressed as EU/ml.

Assay [2] is described as follows: CLP rat, plasma endotoxin by LAL kit. In kind it is in vivo. Conditions: 20 hours, 25 mg/ml pump, n = 10, P < 0.05. Here is the method: as §1, §2

Consider `CCC(C(=O)NC(CC(=O)O)C(=O)COc1c(F)c(F)cc(F)c1F)n1cccc(NC(=O)OC)c1=O` (centres unmarked) [VX-166], for which the half-inhibitory concentration (IC50) is 0.045 ± 0.007 µM in the assay on Jurkat cells and 0.31 ± 0.07 µM in assay [1]. Further, the “survival rate at 96 hours compared with vehicle control” value in the assay on CD-1 mice (LPS 20 mg/kg iv, 30 mg/kg iv at 0, 4, 8, 12 hours) is on record as “more than doubled”. Moreover, the “survival over 96 hours” value in the assay on CD-1 mice (LPS 20 mg/kg iv, 1, 3, 10 or 30 mg/kg repeat iv bolus at 0, 4, 8 and 12 hours post-LPS, vs vehicle) is listed as “significantly improved survival in a dose-dependent fashion”. Moreover, the “survival compared with vehicle control, second study” value in the assay with CD-1 mice (different batch of LPS, 30 mg/kg iv at 0, 4, 8, 12 hours, P < 0.0001) is given as “substantially improved survival”. Besides, the “thymus weight of surviving rats on day 10 vs control” value in the assay on Sprague-Dawley rats is “significantly higher weight”. For the same compound, the “plasma IL-1β level vs vehicle CLP” value in the assay on IL-1β was “significant reduction”. Also, the “plasma endotoxin level vs vehicle CLP” value in assay [2] is given as “reduced plasma endotoxin levels; also recorded: reduced the level of endotoxin”.
